Source: US5116855A, “Rhodanine derivatives and pharmaceutical compositions” (Nisshin Flour Milling Co., Ltd., priority 1989, dated 1992)

Target: T1, aldose reductase (Rattus norvegicus, UniProt P07943)
T1 construct: the lenses were excised and homogenized in cold distilled water; from tissue; host or cells: lens of male SD rats, homogenate supernatant (crude enzyme)
Experiment: Inhibitory activity against aldose reductase (crude enzyme from rat lenses, NADPH oxidation at 340 nm, D,L-glyceraldehyde substrate)
Type: biochemical
Conditions: aldose reductase from SD rat lenses, pH 6.2, 30° C.; for inhibition at 10 µM: pH 6.2, 10^-5 M; for inhibition at 10 µM / inhibition at 1 µM: read-out: Percentage of inhibition (%); for inhibition at 1 µM: pH 6.2, 10^-6 M
Protocol: The compounds of the present invention were evaluated for the inhibitory activity against aldose reductase according to the following assay procedure.
Enzyme activity was assayed according to the modification [Biochemical Pharmacology, 25, 2505 (1976)] of the method described in J. Biol. Chem., 240, 877-882 (1965).
SD strain male rats were sacrificed by decapitation, the lenses were excised and homogenized in cold distilled water. The homogenate was then centrifuged and the supernatant was used as the crude aldose reductase solution.
Separately, a 0.1 M sodium phosphate buffer (pH 6.2) containing 0.4 M ammonium sulfate was prepared at 30° C. In this buffer were dissolved the present compound, the crude aldose reductase solution and nicotinamide-adenine dinucleotide phosphate, reduced form (NADPH). The mixture was preincubated at 30° C. for 3 minutes and the reaction was initiated by addition of D,L-glyceraldehyde. In this case, the concentration of the present compound dissolved was 10^-5 M and 10^-6 M, respectively. The total amount of the assay mixture was 1.0 ml, containing 0.16 mM of NADPH, 10 mM of D,L-glyceraldehyde and 0.010-0.016 units of aldose reductase.
The inhibitory activity of the present compounds against aldose reductase was measured using each 1.0 ml of the reaction mixture containing the present compound in the above concentration. In this measurement, the rate of NADPH oxidation was followed by recording the decrease in absorbance at 340 nm. The inhibitory activity of the present compounds against aldose reductase as measured was expressed in percentage of inhibition (%) as a relative activity based on a control value.

Percentage of inhibition (%) (10^-5 M) | Percentage of inhibition (%) (10^-6 M) | inhibition at 10 µM [%] | inhibition at 1 µM [%] | Structure (SMILES)
75.8 | 36.8 | – | – | CC(C=Cc1ccc(OCC(=O)O)c(OCC(=O)O)c1)=C1SC(=S)NC1=O (single isomer, unassigned) [83 Isomer B]
– | – | 88.5 | 58.6 | COc1cc(C=C(C)C=C2SC(=S)NC2=O)ccc1OCC(=O)O [Example 76, 2-Methoxy-4-[2-methyl-3-(4-oxo-2-thioxo-5-thiazolinylidene)-1-propenyl]phenoxyacetic acid]
– | – | 57.9 | – | CCOC(=O)CCC(C=Cc1cccc(O)c1)=C1SC(=S)NC1=O (single isomer, unassigned) [8 Isomer A]
– | – | 82.8 | 38.5 | O=C(O)CCC(C=Cc1ccc(C(=O)O)cc1)=C1SC(=S)NC1=O [Example 29, 6-(4-Carboxyphenyl)-4-(4-oxo-2-thioxo-5-thiazolidinylidene)-5-hexenoic acid]
– | – | 75.4 | – | CC(C=Cc1cc(Br)cc(Br)c1OCC(=O)O)=C1SC(=S)NC1=O [Example 81, 2,4-Dibromo-6-[3-(4-oxo-2-thioxo-5-thiazolinylidene)-1-butenyl]phenoxyacetic acid]
– | – | 61.8 | 28.7 | CCCC(=Cc1ccccc1OCC(=O)OC)C=C1SC(=S)NC1=O (single isomer, unassigned) [61 Isomer A]
– | – | 73.8 | – | CCOc1cc(CCC(C)=C2SC(=S)NC2=O)ccc1OCC(=O)O [Example 71, 2-Ethoxy-4-[3-(4-oxo-2-thioxo-5-thiazolinylidene)butyl]phenoxyacetic acid]
– | – | 34.3 | – | COC(=O)COc1c(C=CC(C)=C2SC(=S)NC2=O)cccc1OC [Example 46, Methyl 2-methoxy-6-(3-(4-oxo-2-thioxo-5-thiazolinylidene)-1-butenyl]phenoxyacetate]
– | – | 67.6 | 22.1 | COc1ccc(C=CC(C)=C2SC(=S)NC2=O)cc1OCC(=O)O [Example 82, 2-Methoxy-5-[3-(4-oxo-2-thioxo-5-thiazolinylidene)-1-butenyl]phenoxyacetic acid]
– | – | 38.8 | – | COC(=O)COc1ccccc1C=CC(C)=C1SC(=S)NC1=O [Example 40, Methyl 2-[3-(4-oxo-2-thioxo-5-thiazolinylidene)-1-butenyl]phenoxyacetate]
– | – | 95.8 | 86.1 | CC(C=Cc1cc(Br)ccc1OCC(=O)O)=C1SC(=S)NC1=O [Example 79, 4-Bromo-2-[3-(4-oxo-2-thioxo-5-thiazolinylidene)-1-butenyl]phenoxyacetic acid]
